Measurements as given in US7314709B2, “Compositions and methods for detecting and quantifying COX-2 activity by lipoamino acid metabolism” (Vanderbilt University, priority 2002, dated 2008).
Numbering of substitutions follows the chain as printed.

Assays:
Type in all cases: biochemical, murine
mCOX-2 Y355F = molecular target: T1, mCOX-2 Y355F (Mus musculus, UniProt Q05769, Y341F); test: Initial O2 uptake rate with constriction site mutant Y355F; details: 200 nM enzyme; AA 100 μM
T1 construct: made in house; host or cells: Sf-9 insect cells
T1 sequence (Q05769 18-604 Y341F): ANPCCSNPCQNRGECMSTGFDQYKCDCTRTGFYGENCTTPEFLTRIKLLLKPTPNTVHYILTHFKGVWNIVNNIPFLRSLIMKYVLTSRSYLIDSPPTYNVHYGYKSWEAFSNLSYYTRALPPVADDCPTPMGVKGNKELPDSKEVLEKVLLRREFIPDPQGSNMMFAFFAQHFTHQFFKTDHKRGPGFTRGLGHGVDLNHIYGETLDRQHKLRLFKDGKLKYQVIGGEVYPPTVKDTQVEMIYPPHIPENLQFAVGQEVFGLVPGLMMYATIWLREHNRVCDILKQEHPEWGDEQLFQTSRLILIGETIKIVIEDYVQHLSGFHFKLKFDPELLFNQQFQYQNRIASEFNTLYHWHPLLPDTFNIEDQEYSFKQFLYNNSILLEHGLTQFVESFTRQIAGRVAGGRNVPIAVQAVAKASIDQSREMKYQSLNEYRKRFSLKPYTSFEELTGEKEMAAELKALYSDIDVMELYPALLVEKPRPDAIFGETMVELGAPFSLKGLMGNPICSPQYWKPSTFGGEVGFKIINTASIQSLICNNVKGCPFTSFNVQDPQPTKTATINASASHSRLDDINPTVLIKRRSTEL
Protocol: (§1) Enzymology: COX-1 was purified from ram seminal vesicles as previously described. Site-directed mutagenesis of COX-2 was performed as described previously. Recombinant COX-2 enzymes were expressed in Sf-9 insect cells and purified by ion-exchange chromatography and gel filtration as previously described. Apo-enzymes were reconstituted with hematin prior to activity assays.
(§2) COX activity was quantified as previously described. Initial reaction velocity data were obtained from the linear portion of the oxygen uptake curves. Oxygraph data were analyzed by nonlinear regression with Enzyme Kinetics 1.5 software (Trinity Software, Campton, N.H.).
At the bottom of the substrate (and inhibitor) binding site, there is a hydrogen bonding network comprised of residues Arg-120, Tyr-355, and Glu524, that form a constriction which is present in both COX isoforms. These residues contribute to the binding of the carboxylate in both AA and NSAIDs, and the glycerol moiety of 2-AG [12,23-27].

mCOX-2 V523I = molecular target: T2, mCOX-2 V523I (Mus musculus, UniProt Q05769, V509I); test: Initial O2 uptake rate with side pocket mutant V523I; details: 200 nM enzyme; AA 100 μM
T2 construct: made in house; host or cells: Sf-9 insect cells
T2 sequence (Q05769 18-604 V509I): T1 sequence (Q05769 18-604 Y341F) with F324Y, V492I
Protocol: as §1, §2
(§3) Previous studies have identified residues in the side pocket of COX-2, especially Arg-513, as critical determinants of 2-AG oxygenation by COX-2 [13]. […] (FIG. 5).

mCOX-2 R513H = molecular target: T3, mCOX-2 R513H (Mus musculus, UniProt Q05769, R499H); test: Initial O2 uptake rate with side pocket mutant R513H; details: 200 nM enzyme; AA 100 μM, NAGly 200 μM
T3 construct: made in house; host or cells: Sf-9 insect cells
T3 sequence (Q05769 18-604 R499H): T1 sequence (Q05769 18-604 Y341F) with F324Y, R482H
Protocol: as §1, §2, §3

[1] = molecular target: T4, mCOX-2 V4341/R513H/V5231 (VRV) (Mus musculus, UniProt Q05769, R499H/V420I/V509I); test: Initial O2 uptake rate with side pocket triple mutant (VRV); details: 200 nM enzyme; AA 100 μM, NAGly 200 μM
T4 construct: made in house; host or cells: Sf-9 insect cells
T4 sequence (Q05769 18-604 V420I/R499H/V509I): T1 sequence (Q05769 18-604 Y341F) with F324Y, V403I, R482H, V492I
Protocol: as §1, §2, §3

CCCCC/C=C\C/C=C\C/C=C\C/C=C\CCCC(=O)O [AA, arachidonic acid]
reduction in initial rate of oxygenation compared with wild-type (mCOX-2 Y355F): < 3 fold
effect of mutation on ability to metabolize AA (mCOX-2 V523I): did not greatly affect
effect of mutation on oxygenation rate (mCOX-2 R513H): did not greatly affect
effect of mutation on oxygenation [1]: did not greatly affect
